Experiments:
MAO-B = molecular target: T1, MAO-B (Rattus norvegicus, UniProt P19643); experiment: In vitro inhibition of monoamine oxidase B (substrate phenylethylamine, PEA; mitochondrial suspension of rat brain); assay type: biochemical; details: for IC50: PEA substrate, 20 min preincubation, reaction 10 min
T1 construct: using, as enzyme source, a mitochrondrial suspension of the brain of a rat; from tissue; host or cells: rat brain, mitochondrial suspension
T1 sequence (P19643 1-520): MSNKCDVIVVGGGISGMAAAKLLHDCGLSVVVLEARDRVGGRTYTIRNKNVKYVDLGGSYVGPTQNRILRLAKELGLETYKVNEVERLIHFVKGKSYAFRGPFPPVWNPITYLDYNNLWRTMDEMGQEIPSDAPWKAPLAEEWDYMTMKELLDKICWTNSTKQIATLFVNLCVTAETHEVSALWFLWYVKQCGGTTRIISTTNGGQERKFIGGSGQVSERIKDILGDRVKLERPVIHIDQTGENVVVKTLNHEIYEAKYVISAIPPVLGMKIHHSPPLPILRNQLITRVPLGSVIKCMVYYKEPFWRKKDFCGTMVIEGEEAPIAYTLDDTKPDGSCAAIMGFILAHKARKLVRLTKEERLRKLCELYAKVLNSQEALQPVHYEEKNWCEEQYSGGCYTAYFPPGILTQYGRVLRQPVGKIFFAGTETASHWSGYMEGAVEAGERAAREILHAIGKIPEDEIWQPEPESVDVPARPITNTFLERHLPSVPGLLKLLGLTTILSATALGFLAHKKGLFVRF
Procedure: The quantitative determination of the MAO, activity was made up by using, as enzyme source, a mitochrondrial suspension of the brain of a rat. The standard determination consists in preincubating the enzyme for 20 minutes in the absence then in the presence of the inhibitors. […] The operating method used is that of the protocol of P. C. Baker, Dev. Biol. 14, 267 (1966). The results expressed in terms of CI50 (50% inhibiting concentration) obtained with a certain number of derivatives (I) are shown in tables VII and VIII hereafter.

MAO-A = molecular target: T2, MAO-A (Rattus norvegicus, UniProt P21396); experiment: In vitro inhibition of monoamine oxidase A (substrate serotonine, 5-HT; mitochondrial suspension of rat brain); assay type: biochemical; details: 5-HT substrate; for IC50: Table VII, 20 min preincubation, reaction 40 min; for inhibition at 1 µM: read-out: % of inhibition of MAO-A at a concentration of 10^-6 M, Table VIII, at a concentration of 10^-6 M
T2 construct: using, as enzyme source, a mitochrondrial suspension of the brain of a rat; from tissue; host or cells: rat brain, mitochondrial suspension
T2 sequence (P21396 1-526): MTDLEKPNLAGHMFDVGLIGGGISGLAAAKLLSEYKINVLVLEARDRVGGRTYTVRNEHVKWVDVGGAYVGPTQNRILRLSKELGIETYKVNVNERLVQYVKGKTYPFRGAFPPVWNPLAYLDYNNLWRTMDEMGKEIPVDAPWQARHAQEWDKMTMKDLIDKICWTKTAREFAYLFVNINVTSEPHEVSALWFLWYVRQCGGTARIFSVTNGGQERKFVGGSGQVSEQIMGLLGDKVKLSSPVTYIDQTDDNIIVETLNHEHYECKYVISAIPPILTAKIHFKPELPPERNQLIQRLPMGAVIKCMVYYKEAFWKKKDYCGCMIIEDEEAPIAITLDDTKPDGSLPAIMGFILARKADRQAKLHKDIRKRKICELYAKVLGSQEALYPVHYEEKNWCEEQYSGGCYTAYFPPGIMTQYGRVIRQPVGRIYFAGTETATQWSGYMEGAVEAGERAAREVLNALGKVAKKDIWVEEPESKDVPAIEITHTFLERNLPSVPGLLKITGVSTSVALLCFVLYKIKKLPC
Procedure: The quantitative determination of the MAO, activity was made up by using, as enzyme source, a mitochrondrial suspension of the brain of a rat. The standard determination consists in preincubating the enzyme for 20 minutes in the absence then in the presence of the inhibitors. The activities are determined by using respectively serotonine (5-HT) and phenylethylamine (PEA) as substrates of the MAO-A and of MAO-B, the reaction times being 40 minutes with 5-HT and 10 minutes with PEA. The operating method used is that of the protocol of P. C. Baker, Dev. Biol. 14, 267 (1966).
The results expressed in terms of CI50 (50% inhibiting concentration) obtained with a certain number of derivatives (I) are shown in tables VII and VIII hereafter.

mice = details: mouse, in vivo, 1500 mg/kg

Structure (SMILES)	IC50 (MAO-B; Table VII)	inhibition at 1 µM (MAO-A)	IC50 (MAO-B; Table VIII)	further results
N#CCCCn1nnc(-c2ccccc2)n1 [5-phenyl 2-tetrazole butyronitrile, reference compound]				pharmacological activity: selective inhibition of MAO-B (MAO-B): selective inhibitiopn of the monoamine oxidase of type B (MAO-B)
N#CCCCCn1nnc(-c2ccccc2)n1 [5-phenyl 2-tetrazole valeronitrile, reference compound]				pharmacological activity: selective inhibition of MAO-B (MAO-B): selective inhibitiopn of the monoamine oxidase of type B (MAO-B)
N#CCCn1nnc(-c2ccc(OCc3cccc(Cl)c3)cc2)n1 [Code No. 1, 5-[4-(3-chlorobenzyloxy)phenyl] 2-tetrazole propanenitrile]	0.0022 µM			IC50 (MAO-A): 150 µM; toxicity after oral administration (mice): no toxicity was observed
N#CCCn1nnc(-c2ccc(OCc3ccccc3)cc2)n1 [Code No. 7]	0.0023 µM			IC50 (MAO-A): 86 µM; toxicity after oral administration (mice): no toxicity was observed
N#CCCn1nnc(-c2ccc(-c3ccccc3)cc2)n1 [compound 13]				IC50 (MAO-A): 7.8 µM
N#CCCCn1nnc(-c2ccc(-c3ccccc3)cc2)n1 [compound 14]	1.2 µM			IC50 (MAO-A): 9.6 µM
N#CCCCCCCn1nnc(-c2ccc(-c3ccccc3)cc2)n1 [compound 16]	5.4 µM			IC50 (MAO-A): 46 µM
OCCn1nnc(-c2ccc(OCc3ccccc3)cc2)n1 [compound 17]				toxicity after oral administration (mice): no toxicity was observed
OCCn1nnc(-c2ccc(OCc3ccccc3Cl)cc2)n1 [compound 18]	0.0055 µM			IC50 (MAO-A): 88 µM
OCCn1nnc(-c2ccc(OCc3cccc(Cl)c3)cc2)n1 [compound 19]				toxicity after oral administration (mice): no toxicity was observed
OCCn1nnc(-c2ccc(OCc3ccc(Cl)cc3)cc2)n1 [compound 20]	0.008 µM			IC50 (MAO-A): 60 µM
OCCn1nnc(-c2ccc(OCc3ccc(Cl)c(Cl)c3)cc2)n1 [compound 23]	0.024 µM			IC50 (MAO-A): 140 µM
OCCCCCCn1nnc(-c2ccc(-c3ccccc3)cc2)n1 [compound 27]	16.4 µM			IC50 (MAO-A): 80 µM
N#CCn1nnc(-c2ccc(OCc3ccccc3)cc2)n1 [compound 29]		3%	0.1 µM	
COCn1nnc(-c2ccc(OCc3ccccc3)cc2)n1 [compound 30]	1.6 µM			
Cc1ccc(COc2ccc(-c3nnn(CC#N)n3)cc2)cc1 [compound 31]			1.6 µM	
Cc1ccc(COc2ccc(-c3nnn(CCC#N)n3)cc2)cc1 [compound 32]	0.57 µM			
Cc1ccc(COc2ccc(-c3nnn(CCO)n3)cc2)cc1 [compound 33]		0%	8 µM	
Cc1cccc(COc2ccc(-c3nnn(CCC#N)n3)cc2)c1 [compound 35]		5%	0.2 µM	
Cc1cccc(COc2ccc(-c3nnn(CCO)n3)cc2)c1 [compound 36]		2%	0.3 µM	
Cc1ccccc1COc1ccc(-c2nnn(CC#N)n2)cc1 [compound 37]		10%	0.16 µM	
Cc1ccccc1COc1ccc(-c2nnn(CCC#N)n2)cc1 [compound 38]		6%	0.11 µM	
Cc1ccccc1COc1ccc(-c2nnn(CCO)n2)cc1 [compound 39]		3%	0.29 µM	

Structure (SMILES)	IC50 (MAO-B; Table VII)	inhibition at 1 µM (MAO-A)	IC50 (MAO-B; Table VIII)	further results
COc1ccc(COc2ccc(-c3nnn(CCC#N)n3)cc2)cc1 [compound 41]		9%	3.4 µM	
COc1ccc(COc2ccc(-c3nnn(CCO)n3)cc2)cc1 [compound 42]	4.7 µM			
COc1cccc(COc2ccc(-c3nnn(CCC#N)n3)cc2)c1 [compound 44]		0%	0.4 µM	
COc1cccc(COc2ccc(-c3nnn(CCO)n3)cc2)c1 [compound 45]		7%	0.8 µM	
N#CCn1nnc(-c2ccc(OCc3ccc(F)cc3)cc2)n1 [compound 46]		6%	0.17 µM	
N#CCCn1nnc(-c2ccc(OCc3ccc(F)cc3)cc2)n1 [compound 47]		2%	0.21 µM	
OCCn1nnc(-c2ccc(OCc3ccc(F)cc3)cc2)n1 [compound 48]		2%	0.27 µM	
Cc1ccc(COc2ccc(-c3nnnn3CC#N)cc2)cc1 [compound 50]		12%	0.015 µM	
COc1ccc(COc2ccc(-c3nnnn3CCO)cc2)cc1 [compound 51]	0.89 µM		0.9 µM	
N#CCn1nnnc1-c1ccc(OCc2ccc(F)cc2)cc1 [compound 52]		15%	0.024 µM	
OCCn1nnnc1-c1ccc(OCc2ccc(F)cc2)cc1 [compound 53]		3%	0.36 µM	
N#CCCn1nc(-c2ccc(OCc3ccccc3)cc2)oc1=O [compound 54]	0.0064 µM			
N#CCCn1nc(-c2ccc(OCc3ccccc3)cc2)oc1=S [compound 55]	0.0093 µM			
N#CCCn1nc(-c2ccc(OCc3ccccc3)cc2)sc1=O [compound 56]	0.016 µM			
N#CCCn1nc(-c2ccc(OCc3ccccc3)cc2)sc1=S [compound 57]	0.062 µM			
OCCn1nnnc1-c1ccc(OCc2ccccc2I)cc1 [compound 58]		3%	3.6 µM	
N#CCn1nnnc1-c1ccc(OCc2ccccc2)cc1 [compound 59]		4%	0.067 µM	
Cc1ccccc1COc1ccc(-c2nnnn2CCC#N)cc1 [compound 60]		17%	0.48 µM	
Cc1cccc(COc2ccc(-c3nnnn3CCC#N)cc2)c1 [compound 61]		1%	0.27 µM	
CN(C)CCn1nnc(-c2ccc(OCc3ccccc3)cc2)n1 [compound 64]		15%	0.28 µM	
BrCCn1nnc(-c2ccc(OCc3ccccc3)cc2)n1 [compound 65]		4%	0.09 µM	
CC(=O)NCCn1nnc(-c2ccc(OCc3ccccc3)cc2)n1 [compound 66]		3.7%	1.5 µM	
NCCn1nnc(-c2ccc(OCc3ccccc3)cc2)n1 [compound 68]		6%	0.07 µM	
